Each structure is given as a SMILES string.

For the experiment, the system named is IL-1b. In words: Mouse BMDM IL-1b Assay. It counts as cell-based. The settings on record: Macrophage; C57BL6 bone marrow derived macrophages; 200 ng/mL Ultrapure LPS-B5 3 hours, compound 30 minutes, 5 mM ATP 45 minutes; mouse IL-1b ELISA of supernatant. The protocol: Example 8: Mouse BMDM IL-1b Assay
Mouse bone marrow cells from C57BL6 tibia and femur were culture in complete Isocov's Media supplemented with 20 ng/mL MCSF (BMDM media) at a density of 50 million cells/15 cm Petri dish. Fresh media was changed every 3 days, and bone marrow derived macrophages were collected, washed, and counted on day 7. Cells were seeded into 96 well plates at a density of 5×10^4 cells per well in 100 uL of BMDM media and cultured overnight. The cells were stimulated at 37° C. with 200 ng/mL Ultrapure LPS-B5 for 3 hours before pre-diluted compounds were added. 30 minutes after compound addition, 5 mM ATP was added for the secondary stimulation for 45 minutes. After stimulation, the plates were briefly spun down, and 50 uL of supernatant was harvested from each well. ELISA for mouse IL-1b was performed with 1:10 and 1:100 diluted supernatant using pre-coated kits. IL-1b concentrations were calculated based on pre-titrated standards, and compound inhibition IC50 is generated using the Levenberg Marquardt damped lease-square method.
In general, IC50 refers to the concentration needed to halve the response being measured. High values mean lower potency, low ones higher potency. In the case of `CC(C)c1cccc(C(C)C)c1CC(=O)NS(=O)(=O)c1cc2c(o1)C1CCC(C1)C2=O` (centres unmarked) [Compound 14, 2-(2,6-diisopropylphenyl)-N-((4-oxo-5,6,7,8-tetrahydro-4H-5,8-methanocyclohepta[b]furan-2-yl)sulfonyl)acetamide], the IC50 lay in the range of 1000 to 10000 nM.
As to `CC(C)c1cc(F)cc(C(C)C)c1NC(=O)NS(=O)(=O)c1cc2c(o1)C1CCC(C1)C2(C)O` (centres unmarked) [Compound 28, N-((4-fluoro-2,6-diisopropylphenyl)carbamoyl)-4-hydroxy-4-methyl-5,6,7,8-tetrahydro-4H-5,8-methanocyclohepta[b]furan-2-sulfonamide], the half-maximal inhibitory concentration (IC50) was 100 to 1000 nM.
Then `CC1(O)c2cc(S(=O)(=O)NC(=O)Nc3c4c(c(F)c5c3CCC5)CCC4)oc2C2CCC1C2` (centres unmarked) [Compound 30, N-((8-fluoro-1,2,3,5,6,7-hexahydro-s-indacen-4-yl)carbamoyl)-4-hydroxy-4-methyl-5,6,7,8-tetrahydro-4H-5,8-methanocyclohepta[b]furan-2-sulfonamide], with below 100 nM.
Take `O=C(Nc1c2c(cc3c1CCC3)CCC2)NS(=O)(=O)c1cc2c(o1)C1CCC(CC1)C2CO` (centres unmarked) [Compound 46, N-((1,2,3,5,6,7-hexahydro-s-indacen-4-yl)carbamoyl)-4-(hydroxymethyl)-5,6,7,8-tetrahydro-4H-5,8-ethanocyclohepta[b]furan-2-sulfonamide]: the IC50 was below 100 nM.
The compound `CC(C)c1cccc(C(C)C)c1CC(=O)NS(=O)(=O)c1cc2c(o1)C1CCC(CC1)C2(C)O` (centres unmarked) [Compound 38, 2-(2,6-diisopropylphenyl)-N-((4-hydroxy-4-methyl-5,6,7,8-tetrahydro-4H-5,8-ethanocyclohepta[b]furan-2-yl)sulfonyl)acetamide] yielded an IC50 of 100 to 1000 nM.
With `CC(C)c1cccc(C(C)C)c1CC(=O)NS(=O)(=O)c1cc2c(o1)C1CCC(C1)C2(C)O` (centres unmarked) [Compound 16, 2-(2,6-diisopropylphenyl)-N-((4-hydroxy-4-methyl-5,6,7,8-tetrahydro-4H-5,8-methanocyclohepta[b]furan-2-yl)sulfonyl)acetamide], the IC50 lay within 100 to 1000 nM.
`O=C(Nc1c2c(cc3c1CCC3)CCC2)NS(=O)(=O)c1cc2c(o1)[C@@H]1CC[C@@H](C1)C2O` (stereo partly drawn) [Compound 50, (5S,8R)-N-((1,2,3,5,6,7-hexahydro-s-indacen-4-yl)carbamoyl)-4-hydroxy-5,6,7,8-tetrahydro-4H-5,8-methanocyclohepta[b]furan-2-sulfonamide] returned an IC50 below 100 nM.
Then `O=C(Nc1c2c(cc3c1CCC3)CCC2)NS(=O)(=O)c1cc2c(o1)C1CCC(C1)C2=NO` (centres unmarked) [Compound 11, N-((1,2,3,5,6,7-hexahydro-s-indacen-4-yl)carbamoyl)-4-(hydroxyimino)-5,6,7,8-tetrahydro-4H-5,8-methanocyclohepta[b]furan-2-sulfonamide], with below 100 nM.
Regarding `C[C@@]1(O)c2cc(S(=O)(=O)NC(=O)Nc3c4c(cc5c3CCC5)CCC4)oc2[C@H]2CC[C@@H]1C2` [Compound 39, (4S,5R,8S)-N-((1,2,3,5,6,7-hexahydro-s-indacen-4-yl)carbamoyl)-4-hydroxy-4-methyl-5,6,7,8-tetrahydro-4H-5,8-methanocyclohepta[b]furan-2-sulfonamide], the IC50 lay in the range of 100 to 1000 nM.
The result for `C[C@]1(O)c2cc(S(=O)(=O)NC(=O)Nc3c4c(cc5c3CCC5)CCC4)oc2C2CCC1CC2` [Compound 44, (R)-N-((1,2,3,5,6,7-hexahydro-s-indacen-4-yl)carbamoyl)-4-hydroxy-4-methyl-5,6,7,8-tetrahydro-4H-5,8-ethanocyclohepta[b]furan-2-sulfonamide] reads below 100 nM; that for `CC1(O)c2cc(S(=O)(=O)NC(=O)Nc3c4c(cc5c3CCC5)CCC4)oc2C2CCC1C2` (centres unmarked) [Compound 6, N-((1,2,3,5,6,7-hexahydro-s-indacen-4-yl)carbamoyl)-4-hydroxy-4-methyl-5,6,7,8-tetrahydro-4H-5,8-methanocyclohepta[b]furan-2-sulfonamide], below 100 nM.
Compound `C[C@]1(O)c2cc(S(=O)(=O)NC(=O)Nc3c4c(cc5c3CCC5)CCC4)oc2[C@@H]2CC[C@H]1C2` [Compound 42, (4R,5S,8R)-N-((1,2,3,5,6,7-hexahydro-s-indacen-4-yl)carbamoyl)-4-hydroxy-4-methyl-5,6,7,8-tetrahydro-4H-5,8-methanocyclohepta[b]furan-2-sulfonamide] registered an IC50 below 100 nM.
The compound `O=C(Nc1c2c(c(Br)c3c1CCC3)CCC2)NS(=O)(=O)c1cc2c(o1)C1CCC(C1)C2O` (centres unmarked) [Compound 17, N-((8-bromo-1,2,3,5,6,7-hexahydro-s-indacen-4-yl)carbamoyl)-4-hydroxy-5,6,7,8-tetrahydro-4H-5,8-methanocyclohepta[b]furan-2-sulfonamide] returned an IC50 of 100 to 1000 nM.
`O=C(Nc1c2c(c(Cl)c3c1CCC3)CCC2)NS(=O)(=O)c1cc2c(o1)C1CCC(C1)C2O` (centres unmarked) [Compound 19, N-((8-chloro-1,2,3,5,6,7-hexahydro-s-indacen-4-yl)carbamoyl)-4-hydroxy-5,6,7,8-tetrahydro-4H-5,8-methanocyclohepta[b]furan-2-sulfonamide] yielded an IC50 below 100 nM.
Consider `O=C(Nc1c2c(c(F)c3c1CCC3)CCC2)NS(=O)(=O)c1cc2c(o1)C1CCC(C1)C2O` (centres unmarked) [Compound 31, N-((8-fluoro-1,2,3,5,6,7-hexahydro-s-indacen-4-yl)carbamoyl)-4-hydroxy-5,6,7,8-tetrahydro-4H-5,8-methanocyclohepta[b]furan-2-sulfonamide], for which the half-inhibitory concentration (IC50) is below 100 nM.
`CC1(O)c2cc(S(=O)(=O)NC(=O)Nc3c4c(cc5c3CCC5)CCC4)sc2C2CCC1C2` (centres unmarked) [Compound 47, N-((1,2,3,5,6,7-hexahydro-s-indacen-4-yl)carbamoyl)-4-hydroxy-4-methyl-5,6,7,8-tetrahydro-4H-5,8-methanocyclohepta[b]thiophene-2-sulfonamide]: the IC50 was below 100 nM.
`O=C(Nc1c2c(cc3c1CCC3)CCC2)NS(=O)(=O)c1ccc2c(c1)C(=O)C1CCC2CC1` [Compound 32, N-((1,2,3,5,6,7-hexahydro-s-indacen-4-yl)carbamoyl)-9-oxo-6,7,8,9-tetrahydro-5H-5,8-ethanobenzo[7]annulene-2-sulfonamide] came in with an IC50 below 100 nM.
`C[C@]1(O)c2cc(S(=O)(=O)NC(=O)Nc3c4c(cc5c3CCC5)CCC4)oc2[C@H]2CC[C@@H]1C2` [Compound 40, (4R,5R,8S)-N-((1,2,3,5,6,7-hexahydro-s-indacen-4-yl)carbamoyl)-4-hydroxy-4-methyl-5,6,7,8-tetrahydro-4H-5,8-methanocyclohepta[b]furan-2-sulfonamide] registered an IC50 below 100 nM.
Then `O=C(Nc1c2c(cc3c1CCC3)CCC2)NS(=O)(=O)c1cc2c(s1)C1CCC(C1)C2O` (centres unmarked) [Compound 48, N-((1,2,3,5,6,7-hexahydro-s-indacen-4-yl)carbamoyl)-4-hydroxy-5,6,7,8-tetrahydro-4H-5,8-methanocyclohepta[b]thiophene-2-sulfonamide], with below 100 nM; and `CC1(O)c2cc(S(=O)(=O)NC(=O)Nc3c4c(c(Cl)c5c3CCC5)CCC4)oc2C2CCC1C2` (centres unmarked) [Compound 20, N-((8-chloro-1,2,3,5,6,7-hexahydro-s-indacen-4-yl)carbamoyl)-4-hydroxy-4-methyl-5,6,7,8-tetrahydro-4H-5,8-methanocyclohepta[b]furan-2-sulfonamide], with below 100 nM; and `CC1(O)c2cc(S(=O)(=O)NC(=O)Nc3c4c(cc5c3CCC5)CCC4)sc2C2CCC1CC2` (centres unmarked) [Compound 45, N-((1,2,3,5,6,7-hexahydro-s-indacen-4-yl)carbamoyl)-4-hydroxy-4-methyl-5,6,7,8-tetrahydro-4H-5,8-ethanocyclohepta[b]thiophene-2-sulfonamide], with below 100 nM.
`C[C@@]1(O)c2cc(S(=O)(=O)NC(=O)Nc3c4c(cc5c3CCC5)CCC4)oc2C2CCC1CC2` [Compound 43, (S)-N-((1,2,3,5,6,7-hexahydro-s-indacen-4-yl)carbamoyl)-4-hydroxy-4-methyl-5,6,7,8-tetrahydro-4H-5,8-ethanocyclohepta[b]furan-2-sulfonamide] yielded an IC50 below 100 nM.
The compound `CC(C)c1ccc(F)c(C(C)C)c1NC(=O)NS(=O)(=O)c1cc2c(o1)C1CCC(C1)C2O` (centres unmarked) [Compound 37, N-((3-fluoro-2,6-diisopropylphenyl)carbamoyl)-4-hydroxy-5,6,7,8-tetrahydro-4H-5,8-methanocyclohepta[b]furan-2-sulfonamide] displayed an IC50 of 100 to 1000 nM.
`O=C(Nc1c2c(cc3c1CCC3)CCC2)NS(=O)(=O)c1ccc2c(c1)C(O)C1CCC2CC1` (centres unmarked) [Compound 33, N-((1,2,3,5,6,7-hexahydro-s-indacen-4-yl)carbamoyl)-9-hydroxy-6,7,8,9-tetrahydro-5H-5,8-ethanobenzo[7]annulene-2-sulfonamide] yielded an IC50 of 100 to 1000 nM.
The result for `O=C(Nc1c2c(cc3c1CCC3)CCC2)NS(=O)(=O)c1cc2c(o1)C1CCC(CC1)C2=O` [Compound 23, N-((1,2,3,5,6,7-hexahydro-s-indacen-4-yl)carbamoyl)-4-oxo-5,6,7,8-tetrahydro-4H-5,8-ethanocyclohepta[b]furan-2-sulfonamide] reads below 100 nM.
In the case of `C[C@@]1(O)c2cc(S(=O)(=O)NC(=O)Nc3c4c(cc5c3CCC5)CCC4)oc2[C@@H]2CC[C@H]1C2` [Compound 41, (4S,5S,8R)-N-((1,2,3,5,6,7-hexahydro-s-indacen-4-yl)carbamoyl)-4-hydroxy-4-methyl-5,6,7,8-tetrahydro-4H-5,8-methanocyclohepta[b]furan-2-sulfonamide], the IC50 was below 100 nM.

Values taken from patent publication US12351564B2, “NLRP3 modulators” (Zomagen Biosciences Ltd, priority 2019, dated 2025).
